Reference: PMC3323305 (2011)

Target: 18-kDa Translocator Protein (TSPO) (Homo sapiens, UniProt P30536, T147A)
Assay: radioligand competition against [3H]PK11195 in human platelet membranes
Assay type: binding

Sequence of 18-kDa Translocator Protein (TSPO) (P30536 2-169 T147A): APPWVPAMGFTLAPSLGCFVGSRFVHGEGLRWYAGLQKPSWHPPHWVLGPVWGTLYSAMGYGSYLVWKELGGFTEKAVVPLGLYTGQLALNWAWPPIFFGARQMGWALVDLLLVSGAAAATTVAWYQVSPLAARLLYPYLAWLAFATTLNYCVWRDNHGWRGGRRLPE

Ki: 2.17 ± 0.17 nM
Compound: COc1ccccc1CN(C(C)=O)c1cnccc1Oc1ccccc1 [PBR28]
